Laboratory results published in patent US20220370381A1 (priority 2016, published 2022).
Changes are numbered by the printed parent chain. pIC50, pKi: −log10 of the molar value. Where two headings read alike, the source gives them in different places.

What was measured:
serotonin 5-HT1A = biological target: T1, serotonin 5-HT1A (Rattus norvegicus, UniProt P19327); experiment: Competitive radioligand binding assay, serotonin 5-HT1A
T1 construct: serotonin 5-HT1A (rat cerebral cortex); from tissue; host or cells: rat cerebral cortex
T1 sequence (P19327 1-422): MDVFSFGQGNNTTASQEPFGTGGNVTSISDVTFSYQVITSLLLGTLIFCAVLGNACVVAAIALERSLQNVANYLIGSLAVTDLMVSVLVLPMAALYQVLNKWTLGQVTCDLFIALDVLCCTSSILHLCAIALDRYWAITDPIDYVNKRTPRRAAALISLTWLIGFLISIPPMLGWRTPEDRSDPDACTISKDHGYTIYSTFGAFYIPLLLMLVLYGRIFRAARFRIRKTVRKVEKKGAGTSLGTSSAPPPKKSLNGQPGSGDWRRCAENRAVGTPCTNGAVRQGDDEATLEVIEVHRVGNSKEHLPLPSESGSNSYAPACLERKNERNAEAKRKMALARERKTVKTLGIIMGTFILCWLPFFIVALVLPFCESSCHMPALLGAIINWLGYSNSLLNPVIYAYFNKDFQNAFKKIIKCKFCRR

Sigma 1 [1] = biological target: T2, Sigma 1 (Cavia porcellus, UniProt Q60492); experiment: Sigma-1 receptor tissue bioassay, guinea pig vas deferens, agonist activity (twitch contraction); design: Segments of guinea pig vas deferens were suspended in 20-ml organ baths; from tissue; host or cells: guinea pig vas deferens; conditions: field-stimulated guinea pig vas deferens, compound alone
[2] = biological target: Serotonin 5-HT2B (Human recombinant) (Homo sapiens, UniProt P41595); experiment: Competitive radioligand binding assay, serotonin 5-HT2B
[3] = biological target: T3, human β-2 adrenergic receptor (Homo sapiens, UniProt P07550); experiment: β-2 adrenergic receptor antagonist assay, agonist-induced cAMP production (HTRF); assay type: cell-based; design: expressed in transfected cells; host or cells: HEK-293; conditions: inhibition of isoproterenol-induced cAMP production
Protocol: Transfected HEK-293 cells expressing human β-1 adrenergic receptor, human β-2 adrenergic receptor, and human β3 adrenergic receptor, respectively, were prepared using cloned human cDNA. See H FRIELLE, T., COLLINS, S., DANIEL, K. W., CARON, M. G., LEFKOWITZ, R. J., KOBILKA, B. K. (1987), Cloning of the cDNA for the human beta1-adrenergic receptor, Proc. Natl. Acad. Sci. U.S.A., 84,7920, and BAKER, J. G. (2005) The selectivity of Beta-adrenoreceptor antagonists at the human Beta1, Beta2 and Beta3 adrenoreceptor, Brit.
Transfected cells were suspended in HBSS buffer (Invitrogen) complemented with 20 mM HEPES (pH 7.4) and 500 μM IBMX. […] The cells were then distributed in 96 well microplates (see FIG. 15 for plating densities).
After plating, the cells were induced by adding reference agonist. See FIG. 15 for reference agonists and concentrations used for each assay. […] The cells were then incubated 30 minutes at room temperature.
Subsequently, the cells were lysed and a fluorescence acceptor (D2-labeled cAMP) and a fluorescence donor (anti-cAMP antibody labeled with europium cryptate) were added to the wells.
Standard reference antagonists were tested in each experiment at several concentrations to generate a concentration-response curve from which its IC50 value is calculated.
EC50 values (concentration producing a half-maximal response) and IC50 values (concentration causing a half-maximal inhibition of the control agonist response) were determined by non-linear regression analysis of the concentration-response curves generated with mean replicate values using Hill equation curve fitting: […]
For the antagonists, the apparent dissociation constants (KB) were calculated using the modified Cheng Prusoff equation:
KB=IC50/[1+(A/EC50A)], where

[4] = biological target: T4, Human muscarinic M1 receptor (Homo sapiens, UniProt P11229); assay type: cell-based; conditions: acetylcholine-induced Ca2+ mobilization, CHO cells
T4 construct: expressed in transfected cells; host or cells: CHO
T4 sequence (P11229 1-460): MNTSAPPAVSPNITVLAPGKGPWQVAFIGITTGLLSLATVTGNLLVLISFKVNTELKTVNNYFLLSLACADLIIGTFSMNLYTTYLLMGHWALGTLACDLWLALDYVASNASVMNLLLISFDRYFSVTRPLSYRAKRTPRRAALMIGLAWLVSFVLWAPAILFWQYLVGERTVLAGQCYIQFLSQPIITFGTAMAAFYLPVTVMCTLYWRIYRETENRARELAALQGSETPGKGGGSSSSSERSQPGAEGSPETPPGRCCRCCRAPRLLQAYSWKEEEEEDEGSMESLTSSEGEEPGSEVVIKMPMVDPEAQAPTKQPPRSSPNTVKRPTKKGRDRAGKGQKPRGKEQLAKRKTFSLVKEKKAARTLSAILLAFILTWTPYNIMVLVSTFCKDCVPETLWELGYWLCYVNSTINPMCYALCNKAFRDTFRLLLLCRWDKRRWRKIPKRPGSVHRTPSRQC
Protocol: After plating, a fluorescent probe (Fluo4 NW, Invitrogen), mixed with probenicid in HBSS buffer (Invitrogen) complemented with 20 mM Hepes (Invitrogen) (pH 7.4), was added into each well and equilibrated with the cells for 60 min at 37° C., followed by a second incubation for 15 min at 22° C.
Thereafter, the assay plates were positioned in a microplate reader (CellLux, PerkinElmer). After a 5-min incubation, 3 nM acetylcholine was added to all except the basal control wells to a total reaction volume of 100 uL, and changes in fluorescence intensity which vary proportionally to the free cytosolic Ca2+ ion concentration, were measured.
The stock solutions were then diluted to [10×] in HBSS and 0.1% BSA just prior to use. Maximum tolerable DMSO concentration was 0.3%.

rats = conditions: cited from earlier work
Swiss OF-1 mice [5] = conditions: female BKTO mice, O'Neill & Conway (2001); cited from earlier work
Swiss OF-1 mice [6] = experiment: Forced swim test (FST) in mice; conditions: acute IP injection, lower doses not active
hNav1.5 = hNav1.5 (Homo sapiens, UniProt Q14524); experiment: Ion channel profiling, IonFlux HT automated patch clamp, hNav1.5
[7] = biological target: Serotonin 5-HT7 (Human recombinant) (Homo sapiens, UniProt P34969); experiment: Competitive radioligand binding assay, serotonin 5-HT7
Sigma 1 [8] = biological target: T2, Sigma 1; experiment: Competitive radioligand binding assay, Sigma 1; design: species or system Guinea pig
Swiss OF-1 mice [9] = experiment: Spontaneous alternation in the Y-maze, dizocilpine-induced deficit; assay type: in vivo, mouse; conditions: IP; 0.1 mg/kg not active
Swiss OF-1 mice [10] = experiment: Step-through passive avoidance, dizocilpine-induced deficit; assay type: in vivo, mouse; conditions: IP; 0.1 mg/kg not active
DBA/1 mice = conditions: comparator value, no test described; cited from earlier work
Na channel = tested on: T5, Na channel; experiment: Competitive radioligand binding assay, Na channel; design: species or system Rat
T5 construct: other: test article 1×10^−6 and 1×10^−5 mol/L; rat brain

[11] = biological target: T3, human β-2 adrenergic receptor; experiment: Competitive radioligand binding assay, β2-adrenergic
[12] = tested on: T6, β-Adrenergic (Non-selective); experiment: Competitive radioligand binding assay, β-adrenergic (non-selective); design: species or system Rat
T6 construct: β-1 adrenergic; other: test article 1×10^−6 and 1×10^−5 mol/L; rat brain

Muscarinic M1 = biological target: T7, Muscarinic M1 (Rattus norvegicus, UniProt P08482); experiment: Competitive radioligand binding assay, muscarinic M1
T7 construct: Muscarinic M1 (Rat cerebral cortex); from tissue; host or cells: rat cerebral cortex
T7 sequence (P08482 1-460): T4 sequence (P11229 1-460) with A5V, T254S, P309S, R320K, A337G, I413V

Sigma 1 [13] = biological target: T2, Sigma 1; experiment: Sigma-1 receptor tissue bioassay, guinea pig vas deferens, antagonist activity ((+)SKF-10047-induced response); design: Segments of guinea pig vas deferens were suspended in 20-ml organ baths; from tissue; host or cells: guinea pig vas deferens; conditions: field-stimulated guinea pig vas deferens, (+)SKF-10047 100 μM
Sigma non-selective = experiment: Competitive radioligand binding assay, sigma non-selective; design: species or system Guinea pig
[14] = Example 3, Ki=IC50/(1+L/Kd), IC50 expressed in mol/L, read-out: Ki, 5-HT1A
[15] = Example 2, seven concentrations
[16] = test article 1×10^−6 and 1×10^−5 mol/L, rat cerebral cortex
[17] = test article 1×10^−6 and 1×10^−5 mol/L, rat brain

T2 sequence (Q60492 whole entry): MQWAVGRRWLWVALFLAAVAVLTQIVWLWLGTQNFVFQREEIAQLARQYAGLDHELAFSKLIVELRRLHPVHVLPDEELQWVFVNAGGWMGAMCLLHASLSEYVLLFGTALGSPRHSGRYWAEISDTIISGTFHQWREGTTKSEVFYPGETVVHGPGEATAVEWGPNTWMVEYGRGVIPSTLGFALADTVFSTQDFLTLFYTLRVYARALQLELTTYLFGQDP
T3 sequence (P07550 whole entry): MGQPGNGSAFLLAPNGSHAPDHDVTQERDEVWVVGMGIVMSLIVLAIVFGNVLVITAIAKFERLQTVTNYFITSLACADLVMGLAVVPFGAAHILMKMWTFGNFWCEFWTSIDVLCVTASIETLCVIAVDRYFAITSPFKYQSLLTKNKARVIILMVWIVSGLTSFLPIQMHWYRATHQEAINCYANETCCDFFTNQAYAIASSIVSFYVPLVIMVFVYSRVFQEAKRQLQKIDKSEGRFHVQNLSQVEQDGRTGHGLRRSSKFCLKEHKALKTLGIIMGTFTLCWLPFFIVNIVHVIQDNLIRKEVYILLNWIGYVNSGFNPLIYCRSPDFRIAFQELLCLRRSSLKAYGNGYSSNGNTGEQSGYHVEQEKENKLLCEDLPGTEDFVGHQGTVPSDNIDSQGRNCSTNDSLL
Chain of hNav1.5 (Q14524 whole entry): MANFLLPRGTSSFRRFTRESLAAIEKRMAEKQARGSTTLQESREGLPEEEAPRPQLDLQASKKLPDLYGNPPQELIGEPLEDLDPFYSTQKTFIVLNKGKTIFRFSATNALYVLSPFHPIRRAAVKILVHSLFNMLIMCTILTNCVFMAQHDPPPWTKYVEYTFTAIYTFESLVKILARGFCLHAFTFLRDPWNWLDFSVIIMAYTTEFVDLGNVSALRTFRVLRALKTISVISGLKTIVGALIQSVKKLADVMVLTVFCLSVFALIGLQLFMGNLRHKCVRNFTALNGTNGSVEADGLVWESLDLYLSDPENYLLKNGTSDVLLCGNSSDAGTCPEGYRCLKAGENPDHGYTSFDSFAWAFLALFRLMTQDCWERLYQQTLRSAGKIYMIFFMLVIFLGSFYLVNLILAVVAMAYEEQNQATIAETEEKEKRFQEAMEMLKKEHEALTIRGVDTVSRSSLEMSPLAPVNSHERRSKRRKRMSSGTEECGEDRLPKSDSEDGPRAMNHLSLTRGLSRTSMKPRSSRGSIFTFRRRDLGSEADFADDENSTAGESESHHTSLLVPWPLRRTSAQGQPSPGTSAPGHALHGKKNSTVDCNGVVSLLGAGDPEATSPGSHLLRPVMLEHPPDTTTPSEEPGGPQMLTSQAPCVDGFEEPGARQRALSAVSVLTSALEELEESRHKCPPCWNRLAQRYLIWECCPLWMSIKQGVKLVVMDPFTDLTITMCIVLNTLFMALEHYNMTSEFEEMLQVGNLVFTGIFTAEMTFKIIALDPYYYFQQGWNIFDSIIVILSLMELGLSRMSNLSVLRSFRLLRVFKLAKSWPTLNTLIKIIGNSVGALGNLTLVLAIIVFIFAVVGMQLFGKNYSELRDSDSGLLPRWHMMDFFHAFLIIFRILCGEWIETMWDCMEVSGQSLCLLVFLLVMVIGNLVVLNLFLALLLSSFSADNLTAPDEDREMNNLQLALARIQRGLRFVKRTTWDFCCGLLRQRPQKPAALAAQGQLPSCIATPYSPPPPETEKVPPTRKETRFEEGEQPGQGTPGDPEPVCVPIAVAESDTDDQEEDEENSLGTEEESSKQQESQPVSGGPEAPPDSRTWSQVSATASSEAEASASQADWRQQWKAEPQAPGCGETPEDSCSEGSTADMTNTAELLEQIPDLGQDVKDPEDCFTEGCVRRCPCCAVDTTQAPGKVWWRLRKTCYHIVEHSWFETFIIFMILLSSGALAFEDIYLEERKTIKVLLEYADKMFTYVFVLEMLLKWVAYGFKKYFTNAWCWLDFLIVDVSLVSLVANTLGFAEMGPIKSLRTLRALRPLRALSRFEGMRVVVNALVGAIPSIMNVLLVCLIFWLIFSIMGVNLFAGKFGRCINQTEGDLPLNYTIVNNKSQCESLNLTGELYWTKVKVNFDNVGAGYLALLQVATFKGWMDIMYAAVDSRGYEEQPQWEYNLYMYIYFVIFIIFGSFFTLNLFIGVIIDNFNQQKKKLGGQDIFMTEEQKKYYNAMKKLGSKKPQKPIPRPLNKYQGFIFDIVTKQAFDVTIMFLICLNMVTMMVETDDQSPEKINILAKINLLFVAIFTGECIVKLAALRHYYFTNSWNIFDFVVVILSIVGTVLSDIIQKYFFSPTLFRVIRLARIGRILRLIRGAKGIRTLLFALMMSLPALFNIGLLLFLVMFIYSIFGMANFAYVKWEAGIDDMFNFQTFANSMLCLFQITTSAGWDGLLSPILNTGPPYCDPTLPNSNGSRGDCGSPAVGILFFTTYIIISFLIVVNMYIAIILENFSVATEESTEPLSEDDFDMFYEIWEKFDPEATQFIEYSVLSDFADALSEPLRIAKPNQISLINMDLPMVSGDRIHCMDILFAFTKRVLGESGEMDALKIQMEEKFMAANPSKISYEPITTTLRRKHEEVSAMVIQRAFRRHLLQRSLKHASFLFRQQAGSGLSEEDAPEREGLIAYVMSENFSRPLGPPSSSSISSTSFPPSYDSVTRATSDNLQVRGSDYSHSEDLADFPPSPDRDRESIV
Chain of Serotonin 5-HT7 (Human recombinant) (P34969 whole entry): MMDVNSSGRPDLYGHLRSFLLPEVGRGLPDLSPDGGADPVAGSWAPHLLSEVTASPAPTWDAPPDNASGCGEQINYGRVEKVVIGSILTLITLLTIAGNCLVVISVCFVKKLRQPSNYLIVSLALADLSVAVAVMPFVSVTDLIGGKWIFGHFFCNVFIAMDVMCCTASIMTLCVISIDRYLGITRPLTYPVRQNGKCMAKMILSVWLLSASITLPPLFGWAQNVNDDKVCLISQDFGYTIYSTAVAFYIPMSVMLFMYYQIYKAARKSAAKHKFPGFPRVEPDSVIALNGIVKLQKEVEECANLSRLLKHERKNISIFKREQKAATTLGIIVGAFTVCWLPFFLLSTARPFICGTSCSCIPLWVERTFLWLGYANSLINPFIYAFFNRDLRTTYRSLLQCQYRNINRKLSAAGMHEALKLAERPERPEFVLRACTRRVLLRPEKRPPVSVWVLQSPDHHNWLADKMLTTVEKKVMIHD
Chain of Serotonin 5-HT2B (Human recombinant) (P41595 whole entry): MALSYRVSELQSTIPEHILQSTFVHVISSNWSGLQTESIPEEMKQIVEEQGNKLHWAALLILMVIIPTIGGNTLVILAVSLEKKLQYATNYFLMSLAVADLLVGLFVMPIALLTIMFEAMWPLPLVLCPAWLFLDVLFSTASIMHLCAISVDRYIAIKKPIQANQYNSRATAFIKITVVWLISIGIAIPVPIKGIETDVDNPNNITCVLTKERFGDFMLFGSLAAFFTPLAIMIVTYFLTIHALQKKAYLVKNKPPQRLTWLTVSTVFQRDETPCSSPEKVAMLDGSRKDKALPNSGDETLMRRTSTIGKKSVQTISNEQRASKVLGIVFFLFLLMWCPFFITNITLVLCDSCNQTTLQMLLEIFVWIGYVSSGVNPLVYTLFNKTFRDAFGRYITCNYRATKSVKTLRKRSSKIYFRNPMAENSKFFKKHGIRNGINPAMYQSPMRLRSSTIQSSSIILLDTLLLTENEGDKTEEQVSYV

CC(N)Cc1cccc(C(F)(F)F)c1 (single isomer, unassigned; (+)) [(+)norfenfluramine]
pKi (serotonin 5-HT1A; [14]): 5.94 | effect on twitch contraction amplitude (Sigma 1 [1]): concentration-dependent decrease | pKi [2]: 6.62

CC(N)Cc1cccc(C(F)(F)F)c1 (single isomer, unassigned; (-)) [(−)norfenfluramine]
pKi (serotonin 5-HT1A; [14]): 6.39 | effect on twitch contraction amplitude (Sigma 1 [1]): more complex behavior | antagonist activity at the beta-2 adrenergic receptor [3]: antagonist activity | pKi [2]: 5.92 | antagonist activity at the muscarinic M1 receptor [4]: some antagonist activity

CCN[C@@H](C)Cc1cccc(C(F)(F)F)c1 [(+)fenfluramine]
antagonist activity at the beta-2 adrenergic receptor [3]: antagonist activity

Br.CCCN(CCC)C1CCc2cccc(O)c2C1 (centres unmarked) [Compound 8-OH-DPAT, 7-(Dipropylamino)-5,6,7,8-tetrahydronaphthalen-1-ol hydrobromide]
active dose in forced swim test published previously (rats; male CD-COBS rats, Cervo & Samanin (1987)): 0.25 to 0.5 mg/kg | active dose in forced swim test published previously (rats; male Sprague-Dawley rats, Singh & Lucki (1993)): 0.5 mg/kg | active dose in forced swim test published previously (Swiss OF-1 mice [5]): 0.25 to 1 mg/kg | dose reducing immobility duration in the FST (Swiss OF-1 mice [6]): 3 mg/kg

CCN[C@@H](C)Cc1cccc(C(F)(F)F)c1 [Dexfenfluramine]
pIC50 (serotonin 5-HT1A): 5.89 | pKi (serotonin 5-HT1A): 6.15 | pIC50 (hNav1.5): < 4.52 | pIC50 [7]: 5.12 | pKi [7]: 5.15 | pIC50 (Sigma 1 [8]): 6.90 | pKi (Sigma 1 [8]): 6.96

CC[C@@](C/C=C/c1ccccc1)(c1ccccc1)N(C)CC1CC1.Cl [Igmesine, (R)-(+)-N-Cyclopropylmethyl-α-ethyl-N-methyl-α-[(2E)-3-phenyl-2-propenyl)benzenemethanamine hydrochloride]
dose reducing immobility duration in the FST (Swiss OF-1 mice [6]): 30 mg/kg

Cl.O=C(OCCN1CCOCC1)C1(c2ccccc2)CCCCC1 [PRE-084, 2-(4-Morpholinethyl)-1-phenylcyclohexanecarboxylate hydrochloride]
dose attenuating dizocilpine-induced deficit in spontaneous alternation (Swiss OF-1 mice [9]): 0.3 mg/kg | dose attenuating dizocilpine-induced deficit in passive avoidance response (minimal active dose) (Swiss OF-1 mice [10]): 0.3 mg/kg

CNCCC(Oc1ccc(C(F)(F)F)cc1)c1ccccc1 (centres unmarked) [fluoxetine]
ED50, blockade of S-IRA (comparison value) (DBA/1 mice): 22.2 mg/kg

CC(N)Cc1cccc(C(F)(F)F)c1 (centres unmarked) [norfenfluramine]
binding relative to positive controls (serotonin 5-HT1A; [15]): moderate binding | inhibition of receptor binding (tracer) (serotonin 5-HT1A; [16]): significantly inhibit | binding relative to positive controls (Na channel; [15]): moderate binding | inhibition of receptor binding (tracer) (Na channel; [17]): significantly inhibit | binding relative to positive controls [11, 15]: moderate binding | inhibition of receptor binding (tracer) ([11]; test article 1×10^−6 and 1×10^−5 mol/L, human recombinant): significantly inhibit | binding relative to positive controls ([12]; Example 2, seven concentrations, β-1 adrenergic): moderate binding | inhibition of receptor binding (tracer) [12, 17]: significantly inhibit | activity at the Nav1.5 ion channel (hNav1.5; patch clamp, 0.37-30 μM): weak antagonist | effect on twitch contraction amplitude (Sigma 1 [1]; listed as Racemic norfenfluramine): concentration-dependent decrease | binding relative to positive controls (Muscarinic M1; [15]): moderate binding | inhibition of receptor binding (tracer) (Muscarinic M1; [16]): significantly inhibit | effect on the (+)SKF-10,047-induced increase in twitch contraction amplitude (Sigma 1 [13]): concentration-dependent inhibition | antagonist activity at the beta-2 adrenergic receptor [3]: some antagonist activity | binding relative to positive controls (Sigma non-selective; [15]): moderate binding | inhibition of receptor binding (tracer) (Sigma non-selective; test article 1×10^−6 and 1×10^−5 mol/L, guinea pig brain): significantly inhibit

C[C@@H]1CN(CCCn2c3ccccc3c3ccccc32)C[C@H](C)N1 [rimcazole]
effect on the (+)SKF-10,047-induced increase in twitch contraction amplitude (Sigma 1 [13]): inhibited
